# Results published in ChEMBL document CHEMBL3774317, “Design and synthesis of novel tamoxifen analogues that avoid CYP2D6 metabolism” (Eur J Med Chem, 2016).
# Columns and labels:
# [1] = Cytotoxicity against human SF295 cells assessed as cell growth at 10^-6 M after 48 hrs by SRB assay; format: functional; conditions: SF-295, 48 h, read-out: Activity
# [2] = Cytotoxicity against human LOXIMVI cells assessed as cell growth at 10^-8 M after 48 hrs by SRB assay; format: functional; conditions: LOX IMVI, read-out: Activity
# [3] = Cytotoxicity against human RXF393 cells assessed as cell growth at 10^-5 M after 48 hrs by SRB assay; format: functional; conditions: RXF 393, 48 h, read-out: Activity
# NCI-H226 = test: Cytotoxicity against human NCI-H226 cells assessed as cell growth at 10^-4 M after 48 hrs by SRB assay; format: functional; conditions: NCI-H226, 48 h, read-out: Activity
# [4] = Cytotoxicity against human UO31 cells assessed as cell growth at 10^-6 M after 48 hrs by SRB assay; format: functional; conditions: UO-31, 48 h, read-out: Activity
# NCI-H322M = test: Cytotoxicity against human NCI-H322M cells assessed as cell growth at 10^-8 M after 48 hrs by SRB assay; format: functional; conditions: read-out: Activity
# MDA-MB-231 [5] = test: Cytotoxicity against human MDA-MB-231 cells assessed as cell growth at 10^-7 M after 48 hrs by SRB assay; format: functional; conditions: MDA-MB-231, 48 h, read-out: Activity
# NCI-H23 [6] = test: Cytotoxicity against human NCI-H23 cells assessed as cell growth at 10^-7 M after 48 hrs by SRB assay; format: functional; conditions: NCI-H23, 48 h, read-out: Activity
# [7] = Cytotoxicity against human Caki1 cells assessed as cell growth at 10^-5 M after 48 hrs by SRB assay; format: functional; conditions: CAKI-1, 48 h, read-out: Activity
# [8] = Cytotoxicity against human DU145 cells assessed as cell growth at 10^-8 M after 48 hrs by SRB assay; format: functional; conditions: DU-145, 48 h, read-out: Activity
# SR [9] = test: Cytotoxicity against human SR cells assessed as cell growth at 10^-7 M after 48 hrs by SRB assay; format: functional; conditions: read-out: Activity
# [10] = Cytotoxicity against human HOP92 cells assessed as cell growth at 10^-6 M after 48 hrs by SRB assay; format: functional; conditions: HOP-92, 48 h, read-out: Activity
# MDA-MB-231 [11] = test: Cytotoxicity against human MDA-MB-231 cells assessed as cell growth at 10^-4 M after 48 hrs by SRB assay; format: functional; conditions: MDA-MB-231, 48 h, read-out: Activity
# MDA-MB-435 [12] = test: Cytotoxicity against human MDA-MB-435 cells assessed as cell growth at 10^-6 M after 48 hrs by SRB assay; format: functional; conditions: MDA-MB-435, 48 h, read-out: Activity
# NCI-H23 [13] = test: Cytotoxicity against human NCI-H23 cells assessed as cell growth at 10^-6 M after 48 hrs by SRB assay; format: functional; conditions: NCI-H23, 48 h, read-out: Activity
# [14] = Cytotoxicity against human UACC62 cells assessed as cell growth at 10^-7 M after 48 hrs by SRB assay; format: functional; conditions: UACC-62, 48 h, read-out: Activity
# [15] = Cytotoxicity against human HCT15 cells assessed as cell growth at 10^-6 M after 48 hrs by SRB assay; format: functional; conditions: HCT-15, 48 h, read-out: Activity
# SK-MEL-2 [16] = test: Cytotoxicity against human SK-MEL-2 cells assessed as cell growth at 10^-6 M after 48 hrs by SRB assay; format: functional; conditions: SK-MEL-2, 48 h, read-out: Activity
# SR [17] = test: Cytotoxicity against human SR cells assessed as cell growth at 5 nM after 48 hrs by SRB assay; format: functional; conditions: read-out: Activity
# [18] = Cytotoxicity against human Hs 578T cells assessed as cell growth at 0.5 uM after 48 hrs by SRB assay; format: functional; conditions: read-out: Activity
# [19] = Cytotoxicity against human BT549 cells assessed as cell growth at 5 uM after 48 hrs by SRB assay; format: functional; conditions: BT-549, 48 h, read-out: Activity
# T47D = test: Cytotoxicity against human T47D cells assessed as cell growth at 50 nM after 48 hrs by SRB assay; format: functional; conditions: read-out: Activity
# SK-MEL-2 [20] = test: Cytotoxicity against human SK-MEL-2 cells assessed as cell growth at 0.5 uM after 48 hrs by SRB assay; format: functional; conditions: SK-MEL-2, 48 h, read-out: Activity
# [21] = Cytotoxicity against human IGROV1 cells assessed as cell growth at 0.5 uM after 48 hrs by SRB assay; format: functional; conditions: IGROV-1, 48 h, read-out: Activity
# [22] = Cytotoxicity against human Hs 578T cells assessed as cell growth at 50 uM after 48 hrs by SRB assay; format: functional; conditions: read-out: Activity
# [23] = Cytotoxicity against human UACC62 cells assessed as cell growth at 50 uM after 48 hrs by SRB assay; format: functional; conditions: UACC-62, 48 h, read-out: Activity
# NCI-H460 = test: Cytotoxicity against human NCI-H460 cells assessed as cell growth at 5 uM after 48 hrs by SRB assay; format: functional; conditions: NCI-H460, 48 h, read-out: Activity
# [24] = Cytotoxicity against human Caki1 cells assessed as cell growth at 0.5 uM after 48 hrs by SRB assay; format: functional; conditions: CAKI-1, 48 h, read-out: Activity
# [25] = Metabolic stability in human hepatocytes assessed as remaining parent compound level at 10 uM measured immediately after compound addition by LC/MS analysis; format: ADME, cell-based, Hepatocyte; conditions: read-out: Drug metabolism
# MDA-MB-435 [26] = test: Cytotoxicity against human MDA-MB-435 cells assessed as cell growth at 5 uM after 48 hrs by SRB assay; format: functional; conditions: MDA-MB-435, 48 h, read-out: Activity
# MDA-MB-435 [27] = test: Cytotoxicity against human MDA-MB-435 cells assessed as cell growth at 50 nM after 48 hrs by SRB assay; format: functional; conditions: MDA-MB-435, 48 h, read-out: Activity
# SK-MEL-28 = test: Cytotoxicity against human SK-MEL-28 cells assessed as cell growth at 50 uM after 48 hrs by SRB assay; format: functional; conditions: SK-MEL-28, 48 h, read-out: Activity
# [28] = Cytotoxicity against human SKOV3 cells assessed as cell growth at 5 uM after 48 hrs by SRB assay; format: functional; conditions: SK-OV-3, 48 h, read-out: Activity
# [29] = Metabolic stability in human liver microsomes assessed as remaining parent compound level at 10 uM after 3 hrs in absence of NAPDH by LC/MS analysis; format: ADME; conditions: read-out: Drug metabolism
# MDA-MB-231 [30] = test: Cytotoxicity against human MDA-MB-231 cells assessed as cell growth at 0.5 uM after 48 hrs by SRB assay; format: functional; conditions: MDA-MB-231, 48 h, read-out: Activity
# SN12C = test: Cytotoxicity against human SN12C cells assessed as cell growth at 0.5 uM after 48 hrs by SRB assay; format: functional; conditions: read-out: Activity
# SK-MEL-5 = test: Cytotoxicity against human SK-MEL-5 cells assessed as cell growth at 50 uM after 48 hrs by SRB assay; format: functional; conditions: SK-MEL-5, 48 h, read-out: Activity
# [31] = Cytotoxicity against human BT549 cells assessed as cell growth at 50 nM after 48 hrs by SRB assay; format: functional; conditions: BT-549, 48 h, read-out: Activity
# ACHN = test: Cytotoxicity against human ACHN cells assessed as cell growth at 0.5 uM after 48 hrs by SRB assay; format: functional; conditions: read-out: Activity
# [32] = Cytotoxicity against human HOP62 cells assessed as cell growth at 5 uM after 48 hrs by SRB assay; format: functional; conditions: HOP-62, 48 h, read-out: Activity
# U-251 = test: Cytotoxicity against human U251 cells assessed as cell growth at 5 nM after 48 hrs by SRB assay; format: functional; conditions: U-251, 48 h, read-out: Activity
# [33] = Cytotoxicity against human COLO205 cells assessed as cell growth at 5 nM after 48 hrs by SRB assay; format: functional; conditions: COLO 205, 48 h, read-out: Activity
compound,measurement,setting,value
C/C(=C(/c1ccc(O)cc1)c1ccc(OCCN2CCCC2)cc1)c1ccccc1,growth at 1 µM,[1],94%
same,growth at 0.01 µM,[2],98%
same,growth at 10 µM,[3],-37%
same,growth at 100 µM,NCI-H226,-62%
same,growth at 1 µM,[4],78%
same,growth at 0.01 µM,NCI-H322M,97%
same,growth at 0.1 µM,MDA-MB-231 [5],116%
same,growth at 0.1 µM,NCI-H23 [6],94%
same,growth at 10 µM,[7],17%
same,growth at 0.01 µM,[8],98%
same,growth at 0.1 µM,SR [9],90%
same,growth at 1 µM,[10],84%
same,growth at 100 µM,MDA-MB-231 [11],-71%
same,growth at 1 µM,MDA-MB-435 [12],87%
same,growth at 1 µM,NCI-H23 [13],86%
same,growth at 0.1 µM,[14],101%
same,growth at 1 µM,[15],81%
same,growth at 1 µM,SK-MEL-2 [16],99%
CCCCCCCCCC(=O)Oc1ccc(/C(=C(/C)c2ccccc2)c2ccc(OCCN3CCCC3)cc2)cc1,growth at 0.005 µM,SR [17],99%
same,growth at 0.5 µM,[18],75%
same,growth at 5 µM,[19],85%
same,growth at 0.05 µM,T47D,62%
same,growth at 0.5 µM,SK-MEL-2 [20],99%
same,growth at 0.5 µM,[21],72%
same,growth at 50 µM,[22],-18%
same,growth at 50 µM,[23],-90%
same,growth at 5 µM,NCI-H460,92%
same,growth at 0.5 µM,[24],75%
same,"remaining at 0 h, 10 µM",[25],29%
same,growth at 5 µM,MDA-MB-435 [26],82%
same,growth at 0.05 µM,MDA-MB-435 [27],92%
same,growth at 50 µM,SK-MEL-28,-95%
same,growth at 5 µM,[28],78%
same,"remaining at 3 h, 10 µM",[29],54%
same,growth at 0.5 µM,MDA-MB-231 [30],96%
same,growth at 0.5 µM,SN12C,88%
same,growth at 50 µM,SK-MEL-5,-100%
same,growth at 0.05 µM,[31],92%
same,growth at 0.5 µM,ACHN,88%
same,growth at 5 µM,[32],91%
same,growth at 0.005 µM,U-251,98%
same,growth at 0.005 µM,[33],104%
